Earlier results, collected in patent US7368249B2, “Methods and compositions for evaluation and modulation of fertility” (The Curators of the University of Missouri, priority 2003, dated 2008).

System: maturing reticulocytes
Conditions: presence vs absence of ETYA

For CCCCCC#CCC#CCC#CCC#CCCCC(=O)O [ETYA, 5,8,11,14-eicosatetraynoic acid], the “mitochondrial degradation in maturing reticulocytes” value is listed as “delayed”.
